{"source": "patent US20030077645A1", "about": "“Superfamily receptor chimeras, translocation assay for superfamily receptor ligands, and methods and kits for detecting and characterizing receptor ligands” (priority 2001, published 2003)", "key": {"[1]": {"tested_on": "GR-RAR chimera", "conditions": "100 nM ATRA, 6 hours", "procedure": "(§3) The 1471.1 cell line was used for this transfection study. Cells were maintained in DMEM with 10% characterized fetal calf serum, L-glutamine, and antibiotics. For transient transfections, 2×10^5 cells were resuspended in cold DMEM without serum with the indicated plasmids and incubated on ice for 1 minute. Electroporations were done in an electroporator at 140 V, 3 pulses and 10 msec pulse length followed by a 10 minute recovery on ice. Cells were then plated and allowed to recover overnight in complete media.\n(§4) Assay of Receptor Activity. Cells were electroporated with 5 ug pLTRLuc, containing the MMTV LTR, and 0.7 ug pCMV-betaGal with or without 10 ug of the indicated receptor expression vector as described above. Cells were plated in duplicate in 100 mm dishes in DMEM containing 10% charcoal/dextran-treated FCS, as described above, and allowed to recover overnight. The next day, cells were treated with the indicated ligand for 6 hours.\n(§5) Transfected cells were treated with the indicated ligand for 6 hours. Fold inductions are shown in the bottom table, and were calculated from the luciferase activity, normalized to beta-galactosidase activity, of ligand induced samples compared to untreated controls."}, "[2]": {"biological_target": "T1, GFP-RAR (wild type RAR) (Homo sapiens, UniProt P10276)", "T1 sequence (P10276 1-462)": "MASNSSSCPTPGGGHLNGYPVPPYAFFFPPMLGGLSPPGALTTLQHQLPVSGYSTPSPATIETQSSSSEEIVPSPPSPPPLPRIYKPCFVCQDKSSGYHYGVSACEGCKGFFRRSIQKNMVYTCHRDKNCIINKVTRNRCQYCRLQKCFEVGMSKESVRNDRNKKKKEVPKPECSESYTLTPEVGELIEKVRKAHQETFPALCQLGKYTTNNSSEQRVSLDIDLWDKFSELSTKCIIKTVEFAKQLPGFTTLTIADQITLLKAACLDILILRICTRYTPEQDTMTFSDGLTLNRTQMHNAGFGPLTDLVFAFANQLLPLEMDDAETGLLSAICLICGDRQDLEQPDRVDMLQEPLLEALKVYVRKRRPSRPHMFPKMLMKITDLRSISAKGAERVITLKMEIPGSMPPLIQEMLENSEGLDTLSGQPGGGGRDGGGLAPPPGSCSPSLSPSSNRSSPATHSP", "conditions": "100 nM ligand, 1 hour, mouse mammary adenocarcinoma cells", "experimental": "(§1) Fluorescence Microscopy. For fluorescence microscopy, cells were electroporated with 2 ug GFP-GR-RAR, GFP-GR, or GFP-RAR. […] GFP was excited with a 488 nm laser lines supplied from a air cooled argon laser. GFP emission was monitored between 505 and 590 nm with a pinhole setting of 1.0.\n(§2) FIG. 3 is a series of photographs which depict subcellular trafficking of chimeric receptor. Mouse mammary adenocarcinoma cells were transfected with GFP-GR-RAR (panels A, B, C), GFP-GR (panels D, E, F), or GFP-RAR (panels G, H, I)."}, "[3]": {"tested_on": "GFP-GR-RAR", "conditions": "100 nM ligand, 1 hour, mouse mammary adenocarcinoma cells", "experimental": "as §1, §2"}, "[4]": {"biological_target": "T2, Endogenous GR (Mus musculus, UniProt P06537)", "T2 sequence (P06537 1-792)": "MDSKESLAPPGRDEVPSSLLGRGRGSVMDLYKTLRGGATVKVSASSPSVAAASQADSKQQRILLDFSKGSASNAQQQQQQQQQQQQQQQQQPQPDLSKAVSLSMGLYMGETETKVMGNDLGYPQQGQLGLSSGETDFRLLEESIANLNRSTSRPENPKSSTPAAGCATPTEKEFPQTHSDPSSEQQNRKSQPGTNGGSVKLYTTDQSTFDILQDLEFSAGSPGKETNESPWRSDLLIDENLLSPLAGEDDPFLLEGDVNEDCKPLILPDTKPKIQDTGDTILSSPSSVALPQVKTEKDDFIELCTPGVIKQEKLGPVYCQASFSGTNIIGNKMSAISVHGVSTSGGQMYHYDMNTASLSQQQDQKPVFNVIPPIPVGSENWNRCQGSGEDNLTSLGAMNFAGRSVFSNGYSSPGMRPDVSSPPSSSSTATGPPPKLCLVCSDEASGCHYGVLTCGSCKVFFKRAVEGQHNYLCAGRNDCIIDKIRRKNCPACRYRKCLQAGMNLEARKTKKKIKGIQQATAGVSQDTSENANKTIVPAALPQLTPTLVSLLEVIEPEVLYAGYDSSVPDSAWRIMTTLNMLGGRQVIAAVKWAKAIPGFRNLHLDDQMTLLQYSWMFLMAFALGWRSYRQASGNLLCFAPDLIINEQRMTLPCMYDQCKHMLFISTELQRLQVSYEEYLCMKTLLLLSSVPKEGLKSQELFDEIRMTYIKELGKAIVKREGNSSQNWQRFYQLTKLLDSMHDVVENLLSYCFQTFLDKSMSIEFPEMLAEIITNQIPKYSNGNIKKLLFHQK", "assay": "cell-based", "conditions": "read-out: Fold induction (luciferase activity normalized to beta-galactosidase activity, vs untreated control)", "procedure": "as §3, §4, §5"}}, "data": [{"smiles": "CC1=C(/C=C/C(C)=C/C=C/C(C)=C/C(=O)O)C(C)(C)CCC1", "note": "[ATRA, all-trans retinoic acid]", "values": [{"measurement": "Fold induction (luciferase activity normalized to beta-galactosidase activity, vs untreated control)", "setting": "[1]", "value": 18.6}, {"measurement": "Subcellular distribution of wild type RAR in response to ligand", "setting": "[2]", "value": "always nuclear"}, {"measurement": "Subcellular distribution of GR-RAR in response to ligand", "setting": "[3]", "value": "translocated to the nucleus"}, {"measurement": "fold induction at 0.1 µM", "setting": "[4]", "value": 1.27}]}]}
